In the supplement of paper PMC10307832:

What follows are cell lines tested with C1=CC2=NC=CN=C2C=C1/C=C/3\C(=O)NC(=O)S3 + Cc1nc(Nc2ncc(C(=O)Nc3c(C)cccc3Cl)s2)cc(N2CCN(CCO)CC2)n1 [Dasatinib] (partner 0.075 µM) (assay: relative viability (nuclei count vs DMSO), 5 days (fraction); higher = more cells survive). Details: first compound 0.02 µM.
Summary of the method: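 Dosing by pin tool came one day after lung cancer cell lines were seeded in 1536-well plates, using either one drug or a fixed anchor-drug dose plus five library-drug doses (not always all listed) in √10 steps. After 5 days, nuclei were counted on 4× images. Relative viability is treated-well nuclei count divided by vehicle-well nuclei count, and values are medians of duplicate plates.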

Question: How did the relative viability turn out when HARA was run?
Answer: The relative viability was 0.278.

Question: With NCI-H322M as the cell line, how does the relative viability read?
Answer: Its relative viability is 0.274.

Question: How did the relative viability turn out when LCLC-97TM1 was run?
Answer: Its relative viability is 0.974.

Question: Which relative viability does the source give for NCI-H2009 here?
Answer: The relative viability was 0.312.

Question: A-427 was tested. Which relative viability did it give?
Answer: Its relative viability is 0.685.

Question: With NCI-H441 as the cell line, how does the relative viability read?
Answer: The relative viability was 0.797.

Question: How did the relative viability turn out when NCI-H661 was run?
Answer: Its relative viability is 1.03.

Question: With NCI-H1734 as the cell line, how does the relative viability read?
Answer: The relative viability was 0.463.

Question: NCI-H460 was tested. Which relative viability did it give?
Answer: Its relative viability is 0.53.

Question: For NCI-H2347, which relative viability is on record?
Answer: The relative viability was 0.318.

Question: For SK-LU-1, which relative viability is on record?
Answer: Its relative viability is 0.196.

Question: Which relative viability does the source give for NCI-H1395 here?
Answer: Its relative viability is 0.44.

Question: For 201T, which relative viability is on record?
Answer: Its relative viability is 0.543.

Question: For NCI-H1915, which relative viability is on record?
Answer: Its relative viability is 0.297.

Question: How did the relative viability turn out when HCC-827 was run?
Answer: Its relative viability is 0.338.

Question: LXF-289 was tested. Which relative viability did it give?
Answer: The relative viability was 0.192.

Question: NCI-H23 was tested. Which relative viability did it give?
Answer: The relative viability was 0.703.

Question: With NCI-H647 as the cell line, how does the relative viability read?
Answer: The relative viability was 0.173.

Question: With CAL-12T as the cell line, how does the relative viability read?
Answer: Its relative viability is 0.417.

Question: With NCI-H1651 as the cell line, how does the relative viability read?
Answer: Its relative viability is 0.403.

Question: Which relative viability does the source give for EPLC-272H here?
Answer: Its relative viability is 0.43.

Question: For NCI-H2228, which relative viability is on record?
Answer: The relative viability was 0.414.

Question: How did the relative viability turn out when NCI-H1355 was run?
Answer: Its relative viability is 0.476.

Question: With NCI-H3122 as the cell line, how does the relative viability read?
Answer: Its relative viability is 0.8.

Question: NCI-H1437 was tested. Which relative viability did it give?
Answer: The relative viability was 0.656.

Question: How did the relative viability turn out when NCI-H1755 was run?
Answer: The relative viability was 0.43.

Question: How did the relative viability turn out when NCI-H2023 was run?
Answer: Its relative viability is 0.5.

Question: How did the relative viability turn out when HCC-15 was run?
Answer: The relative viability was 0.665.

Question: With NCI-H1793 as the cell line, how does the relative viability read?
Answer: Its relative viability is 0.407.

Question: PC-14 was tested. Which relative viability did it give?
Answer: Its relative viability is 0.287.

Question: With EKVX as the cell line, how does the relative viability read?
Answer: Its relative viability is 0.515.

Question: With LC-2-ad as the cell line, how does the relative viability read?
Answer: Its relative viability is 0.843.

Same assay, conditions: first compound 0.06325 µM

Question: Which relative viability does the source give for HARA here?
Answer: The relative viability was 0.315.

Question: With NCI-H322M as the cell line, how does the relative viability read?
Answer: Its relative viability is 0.27.

Question: How did the relative viability turn out when LCLC-97TM1 was run?
Answer: Its relative viability is 0.762.

Question: NCI-H2009 was tested. Which relative viability did it give?
Answer: The relative viability was 0.31.

Question: How did the relative viability turn out when A-427 was run?
Answer: Its relative viability is 0.753.

Question: How did the relative viability turn out when NCI-H441 was run?
Answer: Its relative viability is 0.526.

Question: For NCI-H661, which relative viability is on record?
Answer: Its relative viability is 1.12.

Question: NCI-H1734 was tested. Which relative viability did it give?
Answer: Its relative viability is 0.468.

Question: With NCI-H460 as the cell line, how does the relative viability read?
Answer: The relative viability was 0.782.

Question: NCI-H2347 was tested. Which relative viability did it give?
Answer: Its relative viability is 0.26.

Question: Which relative viability does the source give for SK-LU-1 here?
Answer: Its relative viability is 0.196.

Question: NCI-H1395 was tested. Which relative viability did it give?
Answer: Its relative viability is 0.386.

Question: For 201T, which relative viability is on record?
Answer: The relative viability was 0.619.

Question: For NCI-H1915, which relative viability is on record?
Answer: Its relative viability is 0.313.

Question: How did the relative viability turn out when HCC-827 was run?
Answer: Its relative viability is 0.194.

Question: How did the relative viability turn out when LXF-289 was run?
Answer: Its relative viability is 0.176.

Question: For NCI-H23, which relative viability is on record?
Answer: Its relative viability is 0.976.

Question: With NCI-H647 as the cell line, how does the relative viability read?
Answer: The relative viability was 0.259.

Question: Which relative viability does the source give for CAL-12T here?
Answer: The relative viability was 0.34.

Question: NCI-H1651 was tested. Which relative viability did it give?
Answer: The relative viability was 0.452.

Question: For EPLC-272H, which relative viability is on record?
Answer: Its relative viability is 0.462.

Question: For NCI-H2228, which relative viability is on record?
Answer: Its relative viability is 0.448.

Question: With NCI-H1355 as the cell line, how does the relative viability read?
Answer: The relative viability was 0.599.

Question: With NCI-H3122 as the cell line, how does the relative viability read?
Answer: Its relative viability is 0.953.

Question: How did the relative viability turn out when NCI-H1437 was run?
Answer: The relative viability was 0.353.

Question: NCI-H1755 was tested. Which relative viability did it give?
Answer: The relative viability was 0.371.

Question: NCI-H2023 was tested. Which relative viability did it give?
Answer: Its relative viability is 0.55.

Question: Which relative viability does the source give for HCC-15 here?
Answer: The relative viability was 0.644.

Question: NCI-H1793 was tested. Which relative viability did it give?
Answer: The relative viability was 0.39.

Question: Which relative viability does the source give for PC-14 here?
Answer: Its relative viability is 0.207.

Question: How did the relative viability turn out when EKVX was run?
Answer: Its relative viability is 0.356.

Question: LC-2-ad was tested. Which relative viability did it give?
Answer: Its relative viability is 0.528.

Same assay, conditions: first compound 0.2 µM

Question: HARA was tested. Which relative viability did it give?
Answer: The relative viability was 0.3.

Question: For NCI-H322M, which relative viability is on record?
Answer: Its relative viability is 0.269.

Question: For LCLC-97TM1, which relative viability is on record?
Answer: Its relative viability is 0.775.

Question: How did the relative viability turn out when NCI-H2009 was run?
Answer: The relative viability was 0.358.

Question: A-427 was tested. Which relative viability did it give?
Answer: Its relative viability is 0.692.

Question: How did the relative viability turn out when NCI-H441 was run?
Answer: Its relative viability is 0.7.

Question: With NCI-H661 as the cell line, how does the relative viability read?
Answer: The relative viability was 0.935.

Question: With NCI-H1734 as the cell line, how does the relative viability read?
Answer: Its relative viability is 0.467.

Question: NCI-H460 was tested. Which relative viability did it give?
Answer: The relative viability was 0.477.

Question: Which relative viability does the source give for NCI-H2347 here?
Answer: The relative viability was 0.306.

Question: SK-LU-1 was tested. Which relative viability did it give?
Answer: The relative viability was 0.2.

Question: With NCI-H1395 as the cell line, how does the relative viability read?
Answer: Its relative viability is 0.417.

Question: Which relative viability does the source give for 201T here?
Answer: The relative viability was 0.583.

Question: For NCI-H1915, which relative viability is on record?
Answer: Its relative viability is 0.332.

Question: How did the relative viability turn out when HCC-827 was run?
Answer: Its relative viability is 0.267.
